Results taken from doi:10.1101/2023.03.20.532734v1 (bioRxiv, 2023).
Residues, ends and D or L forms follow the SMILES beside them.

Legend:
WT GLP-2R = target: T1, WT GLP-2R (Homo sapiens, UniProt O95838); experiment: GLP-2R signaling assay, cAMP measurements; format: cell-based
T1 sequence (O95838 1-553): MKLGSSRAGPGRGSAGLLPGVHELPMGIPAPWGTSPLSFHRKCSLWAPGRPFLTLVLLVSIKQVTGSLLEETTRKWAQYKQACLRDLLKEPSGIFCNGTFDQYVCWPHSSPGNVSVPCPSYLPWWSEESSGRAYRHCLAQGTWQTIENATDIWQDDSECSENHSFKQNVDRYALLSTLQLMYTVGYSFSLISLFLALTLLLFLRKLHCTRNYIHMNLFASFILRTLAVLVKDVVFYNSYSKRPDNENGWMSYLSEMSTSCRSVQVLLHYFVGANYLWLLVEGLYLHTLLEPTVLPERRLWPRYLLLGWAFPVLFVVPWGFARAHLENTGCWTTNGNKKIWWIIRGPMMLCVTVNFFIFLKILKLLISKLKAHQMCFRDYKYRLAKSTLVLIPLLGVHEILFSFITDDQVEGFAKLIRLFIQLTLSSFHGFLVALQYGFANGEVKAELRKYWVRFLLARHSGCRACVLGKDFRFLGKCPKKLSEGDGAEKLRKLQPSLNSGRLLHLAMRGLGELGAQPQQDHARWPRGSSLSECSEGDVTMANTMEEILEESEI

[1] = ref [29], [30]; cited from earlier work

Structure (SMILES) | EC50 (WT GLP-2R) [nM] | half-life, whole body metabolism in vivo [1] [min]
CC[C@H](C)[C@H](NC(=O)[C@H](Cc1ccccc1)NC(=O)[C@H](CC(=O)O)NC(=O)[C@H](CCCNC(=N)N)NC(=O)[C@H](C)NC(=O)[C@H](C)NC(=O)[C@H](CC(C)C)NC(=O)[C@H](CC(N)=O)NC(=O)[C@H](CC(=O)O)NC(=O)[C@H](CC(C)C)NC(=O)[C@@H](NC(=O)[C@@H](NC(=O)[C@H](CC(N)=O)NC(=O)[C@H](CCSC)NC(=O)[C@H](CCC(=O)O)NC(=O)[C@H](CC(=O)O)NC(=O)[C@H](CO)NC(=O)[C@H](Cc1ccccc1)NC(=O)[C@H](CO)NC(=O)CNC(=O)[C@H](CC(=O)O)NC(=O)[C@H](CO)NC(=O)[C@@H](N)Cc1c[nH]cn1)[C@@H](C)O)[C@@H](C)CC)C(=O)N[C@@H](CC(N)=O)C(=O)N[C@@H](Cc1c[nH]c2ccccc12)C(=O)N[C@@H](CC(C)C)C(=O)N[C@H](C(=O)N[C@@H](CCC(N)=O)C(=O)N[C@H](C(=O)N[C@@H](CCCCN)C(=O)N[C@H](C(=O)N[C@H](C(=O)N[C@@H](CC(=O)O)C(=O)O)[C@@H](C)O)[C@@H](C)CC)[C@@H](C)O)[C@@H](C)CC [GLP-2 Ser2] (H-HSDGSFSDEMNTILDNLAARDFINWLIQTKITD-OH) | 0.265 | –
CC[C@H](C)[C@H](NC(=O)[C@H](Cc1ccccc1)NC(=O)[C@H](CCC(=O)O)NC(=O)[C@H](CCCCN)NC(=O)[C@H](C)NC(=O)[C@H](C)NC(=O)[C@H](CCC(N)=O)NC(=O)CNC(=O)[C@H](CCC(=O)O)NC(=O)[C@H](CC(C)C)NC(=O)[C@H](Cc1ccc(O)cc1)NC(=O)[C@H](CO)NC(=O)[C@H](CO)NC(=O)[C@@H](NC(=O)[C@H](CC(=O)O)NC(=O)[C@H](CO)NC(=O)[C@@H](NC(=O)[C@H](Cc1ccccc1)NC(=O)[C@@H](NC(=O)CNC(=O)[C@H](CCC(=O)O)NC(=O)[C@H](C)NC(=O)[C@@H](N)Cc1c[nH]cn1)[C@@H](C)O)[C@@H](C)O)C(C)C)C(=O)N[C@@H](C)C(=O)N[C@@H](Cc1c[nH]c2ccccc12)C(=O)N[C@@H](CC(C)C)C(=O)N[C@H](C(=O)N[C@@H](CCCCN)C(=O)NCC(=O)N[C@@H](CCCN=C(N)N)C(=O)NCC(=O)O)C(C)C [GLP-1, glucagon-like peptide 1] | – | 1 to 2
CC[C@H](C)[C@H](NC(=O)[C@H](Cc1ccccc1)NC(=O)[C@H](CC(=O)O)NC(=O)[C@H](CCCN=C(N)N)NC(=O)[C@H](C)NC(=O)[C@H](C)NC(=O)[C@H](CC(C)C)NC(=O)[C@H](CC(N)=O)NC(=O)[C@H](CC(=O)O)NC(=O)[C@H](CC(C)C)NC(=O)[C@@H](NC(=O)[C@@H](NC(=O)[C@H](CC(N)=O)NC(=O)[C@H](CCSC)NC(=O)[C@H](CCC(=O)O)NC(=O)[C@H](CC(=O)O)NC(=O)[C@H](CO)NC(=O)[C@H](Cc1ccccc1)NC(=O)[C@H](CO)NC(=O)CNC(=O)[C@H](CC(=O)O)NC(=O)[C@H](C)NC(=O)[C@@H](N)Cc1cnc[nH]1)[C@@H](C)O)[C@@H](C)CC)C(=O)N[C@@H](CC(N)=O)C(=O)N[C@@H](Cc1c[nH]c2ccccc12)C(=O)N[C@@H](CC(C)C)C(=O)N[C@H](C(=O)N[C@@H](CCC(N)=O)C(=O)N[C@H](C(=O)N[C@@H](CCCCN)C(=O)N[C@H](C(=O)N[C@H](C(=O)N[C@@H](CC(=O)O)C(=O)O)[C@@H](C)O)[C@@H](C)CC)[C@@H](C)O)[C@@H](C)CC [GLP-2, glucagon-like peptide 2] | – | 7
